Reference: patent US11517571B2, “Use of kinase inhibitors to manage tuberculosis and other infectious diseases” (priority 2015, dated 2022)

What was measured:
mycobacterium [1] = test: Mice infected with mycobacterium, CFU in the spleen; format: in vivo; conditions: 7 days p.i., FIG. 2
Protocol: Mice infected with mycobacterium were administered […], rifabutin (2.5 mg/kg/day) alone, and/or a combination of both. CFU in the spleen were determined 7 days (p.i.).

[2] = tested on: Mtb within infected macrophages; test: Mtb in infected macrophages: bacterial load and phagosome-to-lysosome translocation; format: cell-based
mycobacterium [3] = test: In vivo studies with animals infected with mycobacterium
Mtb = test: Rhesus macaque latent TB reactivated by SIV; format: in vivo, Rhesus macaques; conditions: then SIV
[4] = in vivo
c-Kit = c-Kit (Homo sapiens, UniProt P10721); conditions: in vivo
Sequence of c-Kit (P10721 26-976): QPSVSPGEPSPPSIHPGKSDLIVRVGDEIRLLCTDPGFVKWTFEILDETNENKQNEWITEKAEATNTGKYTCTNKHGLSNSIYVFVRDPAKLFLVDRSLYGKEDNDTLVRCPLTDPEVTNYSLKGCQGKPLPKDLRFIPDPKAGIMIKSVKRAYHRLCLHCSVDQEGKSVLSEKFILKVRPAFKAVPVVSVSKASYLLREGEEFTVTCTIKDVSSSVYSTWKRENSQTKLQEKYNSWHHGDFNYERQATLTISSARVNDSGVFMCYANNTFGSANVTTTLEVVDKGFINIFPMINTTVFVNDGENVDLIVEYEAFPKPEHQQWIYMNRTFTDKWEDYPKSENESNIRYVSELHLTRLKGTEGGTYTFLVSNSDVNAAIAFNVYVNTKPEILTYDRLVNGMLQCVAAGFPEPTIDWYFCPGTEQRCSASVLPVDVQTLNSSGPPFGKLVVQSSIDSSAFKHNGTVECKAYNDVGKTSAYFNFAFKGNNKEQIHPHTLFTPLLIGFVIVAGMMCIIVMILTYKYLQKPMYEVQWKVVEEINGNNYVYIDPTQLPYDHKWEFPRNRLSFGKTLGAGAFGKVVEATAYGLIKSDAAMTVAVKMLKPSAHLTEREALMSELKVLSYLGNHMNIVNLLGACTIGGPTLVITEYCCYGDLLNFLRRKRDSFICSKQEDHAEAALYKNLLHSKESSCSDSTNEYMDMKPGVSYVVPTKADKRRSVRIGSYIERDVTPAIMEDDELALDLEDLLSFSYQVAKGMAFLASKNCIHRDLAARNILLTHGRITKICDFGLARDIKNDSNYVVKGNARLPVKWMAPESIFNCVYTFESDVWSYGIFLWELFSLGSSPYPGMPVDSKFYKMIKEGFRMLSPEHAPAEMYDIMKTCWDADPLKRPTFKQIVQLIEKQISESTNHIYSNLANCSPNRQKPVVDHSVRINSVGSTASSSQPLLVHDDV

[5] = Drug concentration in the blood after administration

For `CO[C@H]1/C=C/O[C@@]2(C)Oc3c(C)c(O)c4c(c3C2=O)C2=NC3(CCN(CC(C)C)CC3)NC2=C(NC(=O)/C(C)=C\C=C\[C@H](C)[C@H](O)[C@@H](C)[C@@H](O)[C@@H](C)[C@H](OC(C)=O)[C@@H]1C)C4=O` [Rifabutin], the “bacterial load (CFU in the spleen)” value (mycobacterium [1]; rifabutin 2.5 mg/kg/day alone) was “decrease in bacterial load”.
In the case of `Cc1ccc(NC(=O)c2ccc(CN3CCN(C)CC3)cc2)cc1Nc1nccc(-c2cccnc2)n1` [imatinib, N-(4-methyl-3-((4-(pyridin-3-yl)pyrimidin-2-yl)amino)phenyl)-4-((4-methylpiperazin-1-yl)methyl)benzamide], the “bacterial load in macrophages” value ([2]; FIG. 1) is reported as “decreases bacterial load”, the “translocation of Mtb from the phagosome into the lysosome” value ([2]; at peak concentration in the micromolar range, depends on Abl) is reported as “induces translocation of Mtb” and the “bacterial load (CFU in the spleen)” value (mycobacterium [1]; 100 mg/kg/day alone) is reported as “decrease in bacterial load”. For the same compound, the “amount of granulomatous lesions within the liver” value (mycobacterium [3]) was “reduced the amount of granulomatous lesions”, the “bacterial load in macrophages” value (mycobacterium [3]) was “reduced bacterial load in macrophages” and the survival (Mtb; latent infection for 6-10 weeks, daily treatment, FIG. 3B) was “survived”. For the same compound, the “TB reactivation induced by SIV” value (Mtb; latent infection) was “prevents reactivation”, the “concentration in the blood” value [4] was ~100 nM and the “myelopoiesis (stem cells divide and differentiate along the myeloid lineage)” value (c-Kit) was “encourages the stem cells to divide and differentiate along the myeloid lineage”. The “numbers of innate immune cells in the blood and organs” value (c-Kit) was “increase”, the peak concentration [5] was “micromolar range” and the “time to peak concentration” value [5] was ≤ 6 h.
